Consider 23 compounds from patent publication US20140357655A1, “SPIROINDOLINE DERIVATIVES AS GONADOTROPIN- RELEASING HORMONE RECEPTOR ANTAGONISTS” (Bayer Intellectual Property GmbH, priority 2012, published 2014).

This experiment deals with T1, human GnRH receptor (Homo sapiens, UniProt P30968).
T1 sequence (P30968 1-328): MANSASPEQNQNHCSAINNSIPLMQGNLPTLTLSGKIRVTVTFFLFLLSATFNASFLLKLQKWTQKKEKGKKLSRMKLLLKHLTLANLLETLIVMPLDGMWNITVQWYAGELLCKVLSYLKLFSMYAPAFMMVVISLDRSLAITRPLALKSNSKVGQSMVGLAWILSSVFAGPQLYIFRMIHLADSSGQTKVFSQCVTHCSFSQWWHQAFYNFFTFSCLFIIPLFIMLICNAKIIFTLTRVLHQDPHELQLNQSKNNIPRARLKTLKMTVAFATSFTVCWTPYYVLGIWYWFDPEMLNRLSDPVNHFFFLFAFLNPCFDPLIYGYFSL
Nature of the experiment: IP-One HTRF assay with buserelin (at EC80) stimulation. The experiment is classed as cell-based. As to conditions: CHO cells stably expressing human GnRH receptor, read-out: Potency in IP-One HTRF assay, given as IC50. A digest of the protocol:
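CHO cells stably expressing human GnRH receptor, preincubated 1 h at 37° C with IP1-d2, were exposed to compound and buserelin at EC80 for 1 h at 37° C. After lysis with Tb-anti-IP1 antibody (1 h, 22° C), 665/620 nm HTRF ratio read; 10 concentrations, 20 μM–1 nM, duplicates, 4-parameter IC50.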

On to `CC1N(S(=O)(=O)c2ccc(F)cc2)c2ccc(C(=O)NCc3ncc(F)cc3Cl)cc2C12CCS(=O)(=O)CC2` (centres unmarked) [Example 28, N-[(3-chloro-5-fluoropyridin-2-yl)methyl]-1-[(4-fluorophenyl)sulfonyl]-2-methyl-1,2,2′,3′,5′,6′-hexahydrospiro[indole-3,4′-thiopyran]-5-carboxamide 1′,1′-dioxide], for which the IC50 is 405 nM.

`Cc1ccc(NC(=O)c2ccc3c(c2)C2(CCS(=O)(=O)CC2)C(C2CC2)N3S(=O)(=O)c2ccc(F)cc2)nc1` (centres unmarked) [Example 29, 2-cyclopropyl-1-[(4-fluorophenyl)sulfonyl]-N-(5-methylpyridin-2-yl)-1,2,2′,3′,5′,6′-hexahydrospiro[indole-3,4′-thiopyran]-5-carboxamide 1′,1′-dioxide]: the IC50 is more than 20000 nM. Under `NS(=O)(=O)c1cccc(NC(=O)c2ccc3c(c2)C2(CCS(=O)(=O)CC2)C(C2CC2)N3S(=O)(=O)c2ccc(F)cc2)c1` (centres unmarked) [Example 30, 2-cyclopropyl-1-[(4-fluorophenyl)sulfonyl]-N-(3-sulfamoylphenyl)-1,2,2′,3′,5′,6′-hexahydrospiro[indole-3,4′-thiopyran]-5-carboxamide 1′,1′-dioxide] stands 245 nM; under `Cc1cccnc1CNC(=O)c1ccc2c(c1)C1(CCS(=O)(=O)CC1)C(C1CC1)N2S(=O)(=O)c1ccc(F)cc1` (centres unmarked) [Example 31, 2-cyclopropyl-1-[(4-fluorophenyl)sulfonyl]-N-[(3-methylpyridin-2-yl)methyl]-1,2,2′,3′,5′,6′-hexahydrospiro[indole-3,4′-thiopyran]-5-carboxamide 1′,1′-dioxide], 503 nM. Turning to `O=C(NCc1ccccc1C(F)(F)F)c1ccc2c(c1)C1(CCS(=O)(=O)CC1)C(C1CC1)N2S(=O)(=O)c1ccc(F)cc1` (centres unmarked) [Example 32, 2-cyclopropyl-1-[(4-fluorophenyl)sulfonyl]-N-[2-(trifluoromethyl)benzyl]-1,2,2′,3′,5′,6′-hexahydrospiro[indole-3,4′-thiopyran]-5-carboxamide 1′,1′-dioxide], the IC50 stood at 58 nM. Then `O=C(NC1CCOc2ccccc21)c1ccc2c(c1)C1(CCS(=O)(=O)CC1)C(C1CC1)N2S(=O)(=O)c1ccc(F)cc1` (centres unmarked) [Example 33, 2-cyclopropyl-N-(3,4-dihydro-2H-chromen-4-yl)-1-[(4-fluorophenyl)sulfonyl]-1,2,2′,3′,5′,6′-hexahydrospiro[indole-3,4′-thiopyran]-5-carboxamide 1′,1′-dioxide], with 958 nM.

On to `COC(=O)c1cccc(NC(=O)c2ccc3c(c2)C2(CCS(=O)(=O)CC2)C(C2CC2)N3S(=O)(=O)c2ccc(F)cc2)c1` (centres unmarked) [Example 34, methyl 3-[({2-cyclopropyl-1-[(4-fluorophenyl)sulfonyl]-1′,1′-dioxido-1,2,2′,3′,5′,6′-hexahydrospiro[indole-3,4′-thiopyran]-5-yl}carbonyl)amino]benzoate], for which the IC50 was found to be 66 nM. Under `O=C(NCC1CC1)c1ccc2c(c1)C1(CCS(=O)(=O)CC1)C(C1CC1)N2S(=O)(=O)c1ccc(F)cc1` (centres unmarked) [Example 35, 2-cyclopropyl-N-(cyclopropylmethyl)-1-[(4-fluorophenyl)sulfonyl]-1,2,2′,3′,5′,6′-hexahydrospiro[indole-3,4′-thiopyran]-5-carboxamide 1′,1′-dioxide] stands 627 nM; under `O=C(NCC1CCCCC1)c1ccc2c(c1)C1(CCS(=O)(=O)CC1)C(C1CC1)N2S(=O)(=O)c1ccc(F)cc1` (centres unmarked) [Example 36, N-(cyclohexylmethyl)-2-cyclopropyl-1-[(4-fluorophenyl)sulfonyl]-1,2,2′,3′,5′,6′-hexahydrospiro[indole-3,4′-thiopyran]-5-carboxamide 1′,1′-dioxide], 169 nM. For `CN(C)S(=O)(=O)c1cccc(NC(=O)c2ccc3c(c2)C2(CCS(=O)(=O)CC2)C(C2CC2)N3S(=O)(=O)c2ccc(F)cc2)c1` (centres unmarked) [Example 37, 2-cyclopropyl-N-[3-(N,N-dimethylsulfamoyl)phenyl]-1-[(4-fluorophenyl)sulfonyl]-1,2,2′,3′,5′,6′-hexahydrospiro[indole-3,4′-thiopyran]-5-carboxamide 1′,1′-dioxide], the IC50 is 78 nM. Then `O=C(NCC1CCCC1)c1ccc2c(c1)C1(CCS(=O)(=O)CC1)C(C1CC1)N2S(=O)(=O)c1ccc(F)cc1` (centres unmarked) [Example 38, N-(cyclopentylmethyl)-2-cyclopropyl-1-[(4-fluorophenyl)sulfonyl]-1,2,2′,3′,5′,6′-hexahydrospiro[indole-3,4′-thiopyran]-5-carboxamide 1′,1′-dioxide], with 136 nM; and `COc1cccc(S(=O)(=O)N2c3ccc(C(=O)NCc4ncccc4C(F)(F)F)cc3C3(CCS(=O)(=O)CC3)C2C2CC2)c1` (centres unmarked) [Example 39, 2-cyclopropyl-1-[(3-methoxyphenyl)sulfonyl]-N-{[3-(trifluoromethyl)pyridin-2-yl]methyl}-1,2,2′,3′,5′,6′-hexahydrospiro[indole-3,4′-thiopyran]-5-carboxamide 1′,1′-dioxide], with 53 nM; and `COc1cccc(S(=O)(=O)N2c3ccc(C(=O)NCc4ccccc4C(F)(F)F)cc3C3(CCS(=O)(=O)CC3)C2C2CC2)c1` (centres unmarked) [Example 40, 2-cyclopropyl-1-[(3-methoxyphenyl)sulfonyl]-N-[2-(trifluoromethyl)benzyl]-1,2,2′,3′,5′,6′-hexahydrospiro[indole-3,4′-thiopyran]-5-carboxamide 1′,1′-dioxide], with 32 nM.

For `COc1cccc(S(=O)(=O)N2c3ccc(C(=O)NCc4ncccc4Cl)cc3C3(CCS(=O)(=O)CC3)C2C2CC2)c1` (centres unmarked) [Example 41, N-[(3-chloropyridin-2-yl)methyl]-2-cyclopropyl-1-[(3-methoxyphenyl)sulfonyl]-1,2,2′,3′,5′,6′-hexahydrospiro[indole-3,4′-thiopyran]-5-carboxamide 1′,1′-dioxide], the IC50 came out at 234 nM. Then `COc1cccc(S(=O)(=O)N2c3ccc(C(=O)Nc4cccc(S(N)(=O)=O)c4)cc3C3(CCS(=O)(=O)CC3)C2C2CC2)c1` (centres unmarked) [Example 42, 2-cyclopropyl-1-[(3-methoxyphenyl)sulfonyl]-N-(3-sulfamoylphenyl)-1,2,2′,3′,5′,6′-hexahydrospiro[indole-3,4′-thiopyran]-5-carboxamide 1′,1′-dioxide], with 96 nM. Then `COc1cccc(S(=O)(=O)N2c3ccc(C(=O)Nc4cccc(S(=O)(=O)N(C)C)c4)cc3C3(CCS(=O)(=O)CC3)C2C2CC2)c1` (centres unmarked) [Example 43, 2-cyclopropyl-N-[3-(N,N-dimethylsulfamoyl)phenyl]-1-[(3-methoxyphenyl)sulfonyl]-1,2,2′,3′,5′,6′-hexahydrospiro[indole-3,4′-thiopyran]-5-carboxamide 1′,1′-dioxide], with 56 nM. Then `COc1cccc(S(=O)(=O)N2c3ccc(C(=O)NCc4ccccc4Cl)cc3C3(CCS(=O)(=O)CC3)C2C2CC2)c1` (centres unmarked) [Example 44, N-(2-chlorobenzyl)-2-cyclopropyl-1-[(3-methoxyphenyl)sulfonyl]-1,2,2′,3′,5′,6′-hexahydrospiro[indole-3,4′-thiopyran]-5-carboxamide 1′,1′-dioxide], with 31 nM; and `COc1cccc(S(=O)(=O)N2c3ccc(C(=O)NCc4ncccc4C)cc3C3(CCS(=O)(=O)CC3)C2C2CC2)c1` (centres unmarked) [Example 45, 2-cyclopropyl-1-[(3-methoxyphenyl)sulfonyl]-N-[(3-methylpyridin-2-yl)methyl]-1,2,2′,3′,5′,6′-hexahydrospiro[indole-3,4′-thiopyran]-5-carboxamide 1′,1′-dioxide], with 299 nM. With `COc1cccc(S(=O)(=O)N2c3ccc(C(=O)NCc4ccc(F)cc4Cl)cc3C3(CCS(=O)(=O)CC3)C2C2CC2)c1` (centres unmarked) [Example 46, N-(2-chloro-4-fluorobenzyl)-2-cyclopropyl-1-[(3-methoxyphenyl)sulfonyl]-1,2,2′,3′,5′,6′-hexahydrospiro[indole-3,4′-thiopyran]-5-carboxamide 1′,1′-dioxide], the IC50 was 81 nM. Take `COc1cccc(S(=O)(=O)N2c3ccc(C(=O)NCc4ccccc4F)cc3C3(CCS(=O)(=O)CC3)C2C2CC2)c1` (centres unmarked) [Example 47, 2-cyclopropyl-N-(2-fluorobenzyl)-1-[(3-methoxyphenyl)sulfonyl]-1,2,2′,3′,5′,6′-hexahydrospiro[indole-3,4′-thiopyran]-5-carboxamide 1′,1′-dioxide]: the IC50 turned out to be 133 nM. Under `COC(=O)c1cccc(NC(=O)c2ccc3c(c2)C2(CCS(=O)(=O)CC2)C(C2CC2)N3S(=O)(=O)c2cccc(OC)c2)c1` (centres unmarked) [Example 48, methyl 3-[({2-cyclopropyl-1-[(3-methoxyphenyl)sulfonyl]-1′,1′-dioxido-1,2,2′,3′,5′,6′-hexahydrospiro[indole-3,4′-thiopyran]-5-yl}carbonyl)amino]benzoate] stands 55 nM; under `COc1cccc(S(=O)(=O)N2c3ccc(C(=O)Nc4cccc(C(=O)O)c4)cc3C3(CCS(=O)(=O)CC3)C2C2CC2)c1` (centres unmarked) [Example 50, 3-[({2-cyclopropyl-1-[(3-methoxyphenyl)sulfonyl]-1′,1′-dioxido-1,2,2′,3′,5′,6′-hexahydrospiro[indole-3,4′-thiopyran]-5-yl}carbonyl)amino]benzoic acid], 54 nM. Then `O=C(NCc1ncccc1F)c1ccc2c(c1)C1(CCS(=O)(=O)CC1)C(C1CC1)N2S(=O)(=O)c1ccc(F)cc1` (centres unmarked) [Example 52, 2-cyclopropyl-1-[(4-fluorophenyl)sulfonyl]-N-[(3-fluoropyridin-2-yl)methyl]-1,2,2′,3′,5′,6′-hexahydrospiro[indole-3,4′-thiopyran]-5-carboxamide 1′,1′-dioxide], with 752 nM.

As usually defined, the IC50 is the concentration needed to halve the response being measured.
